pIC50: −log10 of the molar value. Where no end group is shown, it is not given here.
Assays:
Test in all cases: biochemical
Format in all cases: binding
DRB5*0101 = DRB5*0101 (Homo sapiens, UniProt P01903+Q30154)
DRB4*0101 = DRB4*0101 (Homo sapiens, UniProt P01903+P13762, G164S)
DRB3*0101 = DRB3*0101 (Homo sapiens, UniProt P01903+P79483)

Molecule	pIC50 (DRB5*0101)	pIC50 (DRB4*0101)	pIC50 (DRB3*0101)
CC[C@H](C)[C@H](NC(=O)[C@H](Cc1ccc(O)cc1)NC(=O)CNC(=O)[C@H](CCCNC(=N)N)NC(=O)[C@H](C)N)C(=O)N[C@@H](CO)C(=O)N[C@H](C(=O)N[C@@H](CCCNC(=N)N)C(=O)N[C@H](C(=O)NCC(=O)N[C@@H](CCSC)C(=O)NCC(=O)N[C@@H](CCC(=O)O)C(=O)N[C@@H](C)C(=O)N[C@@H](C)C(=O)O)C(C)C)[C@@H](C)O [NS3 297-311]	5.46	5.14	5.06
TRGAVLTYNGKRLEP [NS3 53-67]	6.48	4.94	5.48
MRCVGVGNRDFVEGL [Envelope 1-15]	5.32	5.42	5.55
TNTFVLKKEVSETQH [Envelope 301-315]	5.31	5.66	5.55
CC(C)C[C@H](NC(=O)[C@H](CCCNC(=N)N)NC(=O)[C@H](CCCCN)NC(=O)CNC(=O)[C@@H](N)CC(N)=O)C(=O)N[C@@H](CCC(=O)O)C(=O)N1CCC[C@H]1C(=O)N[C@@H](CC(N)=O)C(=O)N[C@@H](Cc1c[nH]c2ccccc12)C(=O)N[C@@H](C)C(=O)N[C@@H](CO)C(=O)N[C@H](C(=O)N[C@@H](CCCCN)C(=O)N[C@@H](CCCCN)C(=O)N[C@@H](CC(=O)O)C(=O)O)C(C)C [NS3 61-75]	6.84	5.15	5.92
CC[C@H](C)[C@H](NC(=O)[C@H](CCC(N)=O)NC(=O)[C@@H](N)CCCCN)C(=O)N[C@@H](C)C(=O)N[C@@H](CC(N)=O)C(=O)N[C@@H](CCC(=O)O)C(=O)N[C@@H](CC(C)C)C(=O)N[C@@H](CC(N)=O)C(=O)N[C@@H](Cc1ccc(O)cc1)C(=O)N[C@H](C(=O)N[C@@H](CC(C)C)C(=O)N[C@@H](Cc1c[nH]c2ccccc12)C(=O)N[C@@H](CCC(=O)O)C(=O)N[C@@H](CC(N)=O)C(=O)N[C@@H](CC(N)=O)C(=O)O)[C@@H](C)CC [NS1 69-83]	5.62	6.22	7.30
CC[C@H](C)[C@H](NC(=O)[C@@H](N)C(C)C)C(=O)N[C@@H](CC(C)C)C(=O)N[C@H](C(=O)N[C@@H](CC(=O)O)C(=O)NCC(=O)N1CCC[C@H]1C(=O)N[C@@H](CCC(=O)O)C(=O)N[C@@H](CCCNC(=N)N)C(=O)N[C@H](C(=O)N[C@H](C(=O)N[C@@H](CC(C)C)C(=O)N[C@@H](C)C(=O)NCC(=O)N1CCC[C@H]1C(=O)O)[C@@H](C)CC)C(C)C)[C@@H](C)O [NS3 433-447]	5.08	5.46	6.87
CC[C@H](C)[C@H](NC(=O)[C@H](CC(C)C)NC(=O)[C@H](CO)NC(=O)CNC(=O)[C@H](CS)NC(=O)[C@H](Cc1c[nH]c2ccccc12)NC(=O)[C@H](CCC(N)=O)NC(=O)[C@H](CC(=O)O)NC(=O)[C@H](CCC(=O)O)NC(=O)[C@H](CCCNC(=N)N)NC(=O)[C@H](CCCCN)NC(=O)CNC(=O)[C@H](CC(C)C)NC(=O)[C@@H](N)Cc1ccc(O)cc1)C(=O)NCC(=O)N[C@@H](CC(C)C)C(=O)N[C@H](C(=O)O)[C@@H](C)O [NS5 838-854]	4.81	5.80	7.10
CC[C@H](C)[C@H](N)C(=O)N[C@H](C(=O)N[C@H](C(=O)NCC(=O)N[C@H](C(=O)NCC(=O)N[C@@H](CC(=O)O)C(=O)N[C@@H](CC(N)=O)C(=O)N[C@@H](C)C(=O)N[C@@H](CC(C)C)C(=O)N[C@@H](CCCCN)C(=O)N[C@H](C(=O)N[C@@H](CC(N)=O)C(=O)N[C@@H](Cc1c[nH]c2ccccc12)C(=O)N[C@@H](Cc1ccc(O)cc1)C(=O)O)[C@@H](C)CC)[C@@H](C)CC)[C@@H](C)CC)C(C)C [Envelope 376-390]	5.90	5.91	7.82
CC(C)C[C@H](NC(=O)[C@H](CCCNC(=N)N)NC(=O)[C@H](CCCCN)NC(=O)[C@@H]1CCCN1C(=O)[C@H](CO)NC(=O)[C@H](CC(=O)O)NC(=O)[C@H](C)NC(=O)[C@H](CCC(N)=O)NC(=O)[C@H](Cc1ccccc1)NC(=O)[C@H](CCCCN)NC(=O)[C@H](Cc1ccc(O)cc1)NC(=O)[C@H](CCC(N)=O)NC(=O)[C@H](CCC(=O)O)NC(=O)[C@@H](N)[C@@H](C)O)C(=O)N[C@@H](C)C(=O)O [NS1 29-43]	7.64	4.84	7.96
CC[C@H](C)[C@H](N)C(=O)N[C@H](C(=O)NCC(=O)N[C@H](C(=O)N[C@@H](CC(C)C)C(=O)N[C@@H](CCC(=O)O)C(=O)N[C@@H](CCC(N)=O)C(=O)NCC(=O)N[C@@H](CCCCN)C(=O)N[C@@H](CCCNC(=N)N)C(=O)N[C@H](C(=O)N[C@@H](CC(C)C)C(=O)N[C@H](C(=O)N1CCC[C@H]1C(=O)N[C@@H](CCC(N)=O)C(=O)O)[C@@H](C)O)[C@@H](C)O)C(C)C)[C@@H](C)CC [NS1 93-107]	5.51	5.43	5.36
LKKEVSETQHGTILV [Envelope 306-320]	4.90	5.10	4.92
CC[C@H](C)[C@H](NC(=O)[C@H](CC(C)C)NC(=O)[C@H](CCC(=O)O)NC(=O)[C@H](CC(=O)O)NC(=O)[C@H](CCC(N)=O)NC(=O)[C@@H]1CCCN1C(=O)[C@H](CCCNC(=N)N)NC(=O)[C@H](CS)NC(=O)[C@@H]1CCCN1C(=O)[C@@H](NC(=O)[C@@H](NC(=O)[C@H](CC(C)C)NC(=O)[C@H](CCCCN)NC(=O)[C@H](CCCNC(=N)N)NC(=O)CNC(=O)[C@H](CC(=O)O)NC(=O)[C@@H](N)CCCCN)C(C)C)C(C)C)C(=O)O [NS5 719-735]	5.46	4.75	5.25
CC[C@H](C)[C@H](NC(=O)[C@H](CCCNC(=N)N)NC(=O)[C@H](CCCCN)NC(=O)[C@@H](NC(=O)[C@H](CCCNC(=N)N)NC(=O)[C@H](CCC(=O)O)NC(=O)CNC(=O)[C@@H](NC(=O)[C@@H](NC(=O)[C@H](CC(=O)O)NC(=O)[C@H](CCSC)NC(=O)[C@H](CC(N)=O)NC(=O)[C@@H]1CCCN1C(=O)[C@@H](NC(=O)[C@H](CCC(=O)O)NC(=O)[C@@H]1CCCN1)[C@@H](C)O)C(C)C)[C@@H](C)CC)[C@@H](C)CC)C(=O)N[C@@H](CCCCN)C(=O)O [NS5 268-284]	5.55	6.06	5.86
CC[C@H](C)[C@H](NC(=O)[C@@H](NC(=O)[C@H](CCCCN)NC(=O)[C@H](CCCCN)NC(=O)CNC(=O)[C@H](CC(N)=O)NC(=O)[C@H](CCCCN)NC(=O)[C@H](CCCNC(=N)N)NC(=O)[C@H](CC(C)C)NC(=O)[C@H](CS)NC(=O)[C@H](CC(N)=O)NC(=O)[C@H](C)N)C(C)C)C(=O)N[C@@H](CCC(N)=O)C(=O)N[C@@H](CC(C)C)C(=O)N[C@@H](CO)C(=O)O [NS3 373-387]	5.45	5.79	5.46
CC[C@H](C)[C@H](NC(=O)CNC(=O)[C@@H](NC(=O)[C@@H](NC(=O)[C@@H](NC(=O)[C@H](CC(N)=O)NC(=O)[C@H](CO)NC(=O)[C@H](CCC(=O)O)NC(=O)CNC(=O)[C@H](Cc1ccccc1)NC(=O)[C@@H]1CCCN1C(=O)[C@@H]1CCCN1C(=O)[C@H](CCC(=O)O)NC(=O)[C@H](C)NC(=O)[C@@H](N)CCC(=O)O)[C@@H](C)CC)C(C)C)[C@@H](C)CC)C(=O)O [Envelope 366-380]	4.90	5.42	5.49
CC[C@H](C)[C@H](NC(=O)[C@H](CC(=O)O)NC(=O)[C@H](CCSC)NC(=O)[C@@H](N)C(C)C)C(=O)N[C@H](C(=O)N[C@@H](CO)C(=O)N[C@@H](CCCNC(=N)N)C(=O)N[C@@H](CCCCN)C(=O)N[C@@H](CC(=O)O)C(=O)N[C@@H](CCC(N)=O)C(=O)N[C@@H](CCCNC(=N)N)C(=O)NCC(=O)N[C@@H](CO)C(=O)NCC(=O)N[C@@H](CCC(N)=O)C(=O)N[C@H](C(=O)NCC(=O)O)C(C)C)[C@@H](C)CC [NS5 588-604]	4.77	5.20	5.37
CC[C@H](C)[C@H](N)C(=O)N[C@@H](CC(=O)O)C(=O)N[C@@H](CC(=O)O)C(=O)N[C@@H](CCCNC(=N)N)C(=O)N[C@@H](Cc1ccccc1)C(=O)N[C@@H](C)C(=O)N[C@@H](CC(N)=O)C(=O)N[C@@H](C)C(=O)N[C@@H](CC(C)C)C(=O)N[C@@H](CC(C)C)C(=O)N[C@@H](C)C(=O)N[C@@H](CC(C)C)C(=O)N[C@@H](CC(N)=O)C(=O)N[C@@H](CC(=O)O)C(=O)N[C@@H](CCSC)C(=O)NCC(=O)N[C@@H](CCCCN)C(=O)O [NS5 670-686]	6.32	6.01	5.12
LGSQEGAMHTALTGA [Envelope 251-265]	6.14	5.14	5.25
CC[C@H](C)[C@H](N)C(=O)NCC(=O)N[C@@H](CCCCN)C(=O)N[C@@H](CCSC)C(=O)N[C@@H](Cc1ccccc1)C(=O)N[C@@H](CCC(=O)O)C(=O)N[C@@H](C)C(=O)N[C@H](C(=O)N[C@@H](C)C(=O)N[C@@H](CCCNC(=N)N)C(=O)NCC(=O)N[C@@H](C)C(=O)N[C@@H](CCCNC(=N)N)C(=O)N[C@@H](CCCNC(=N)N)C(=O)N[C@@H](CCSC)C(=O)O)[C@@H](C)O [Envelope 396-410]	7.57	5.44	6.37
AILPEYGTLGLECSP [Envelope 171-185]	4.76	6.10	4.90
CC[C@H](C)[C@H](NC(=O)[C@H](C)NC(=O)CNC(=O)[C@@H](NC(=O)[C@H](CCC(=O)O)NC(=O)CN)[C@@H](C)CC)C(=O)N[C@@H](C)C(=O)N[C@@H](CC(C)C)C(=O)N[C@@H](CC(=O)O)C(=O)N[C@@H](Cc1ccccc1)C(=O)N[C@@H](CCCCN)C(=O)N1CCC[C@H]1C(=O)NCC(=O)N[C@H](C(=O)N[C@@H](CO)C(=O)O)[C@@H](C)O [NS3 121-135]	4.92	7.40	5.66
CC[C@H](C)[C@H](NC(=O)[C@@H](NC(=O)[C@H](CC(=O)O)NC(=O)[C@H](CCSC)NC(=O)[C@@H](NC(=O)[C@@H](NC(=O)CNC(=O)[C@H](CCCCN)NC(=O)[C@@H]1CCCN1C(=O)[C@@H](NC(=O)[C@@H]1CCCN1C(=O)[C@H](CCCNC(=N)N)NC(=O)[C@H](CCC(N)=O)NC(=O)[C@@H](NC(=O)[C@H](CCCCN)NC(=O)[C@@H](NC(=O)[C@@H](N)C(C)C)C(C)C)C(C)C)[C@@H](C)O)[C@@H](C)O)C(C)C)[C@@H](C)CC)C(=O)O [NS5 576-592]	7.08	6.97	5.54
